Experiments:
Assay type in all cases: cell-based, human
TRPM2-TE transcript = experiment: qPCR of TRPM2-TE transcript after siRNA transfection in Mel Im cells; conditions: siRNA 10 nM, harvested at 24 hours, respect to mock-transfected cells
From the text: (§1) Beta-actin (Exons 5-6) was amplified from cDNAs using the specific primers: LC+hBactin-U 5′-TCCTCCTGGAGAAGAGCTA-3′ (SEQ ID No. 6) and LC+hBactin-L 5′-GGATGCCACAGGACTCCAT-3′ (SEQ ID No. 7) coupled to human Universal Probe Library (UPL) probe number 11 (Roche) resulting in a 124 bp fragment. TRPM2-FL (Exons 20-21) was amplified by RT-PCR from cDNAs using the specific primers: RCH_LONG_TRPM2_U 5′-ACCTCCTCATCGCCATGTT-3′ (SEQ ID No. 8) and RCH_LONG_TRPM2_L 5′-[…]-3′ (SEQ ID No. 9) coupled to human UPL probe number 11, resulting in a 68 bp fragment. TRPM2-AS (Exons 1-2) was amplified by RT-PCR from cDNAs using the specific primers: RCH-asmel-1F 5′-[…]-3′ (SEQ ID No. 10) and RCH-asmel-1R 5′-[…]-3′ (SEQ ID No. 11) coupled to human UPL probe number 57, resulting in a 61 bp fragment. TRPM2-TE was amplified from cDNAs using the primers: UPL-TSS-U 5′-GATGTTTTGGCGGAAGGAC-3′ (SEQ ID No. 12) and UPL-TSS-Rev 5′-CAGGAAGACGTGACGCAAG-3′ (SEQ ID No. 13) coupled to human UPL probe number 6, resulting in a 88 bp intronless fragment. The contribution of genomic DNA contamination to the detected signal was subtracted by running a parallel real-time quantification from a RT-minus reaction, where the RT-enzyme was substituted with water. When RNA was not available to perform the RT-minus control, the contribution of DNA contamination to the detected signal was subtracted by performing a real-time quantification on the same samples, using a couple of primers specific for the Beta-actin promoter: LC-ProBACT-U1 5′-[…]-3′ (SEQ ID No. 14) and LC-ProBACT-L1 5′-[…]-3′ (SEQ ID No. 15) coupled to human UPL probe number 81 (Roche) resulting in a 85 bp fragment. Real time PCR reactions were performed on a LightCycler 480 instrument (Roche), on 96 multiwell plates (Roche) using LightCycler 480 ProbeMaster Mix (Roche) following the manufacturer instructions. Briefly, all reactions were performed in a final 30 μl volume containing 15 μl of 2× MasterMix, 0.6 μl of each primer (20 μmol/L), 0.3 μl of the corresponding UPL probe (10 μmol/L), and 10 μl of template cDNA. Only for TRPM2-AS the reaction was supplemented with 6 μl of 5× Solution-Q (Qiagen) and the cDNA template lowered to 7 μl. The resulting mix was pre-incubated for 10 minutes at 95° C., then amplification reactions were performed by 45 repetitive cycles of denaturing for 10 seconds at 95° C., annealing for 15 seconds at 58° C. and a final extension plus single acquisition step at 72° C. for 1 second. Levels of target gene transcripts were normalized to transcript levels of a reference gene (Beta-actin) and calculated using a relative quantification model with efficiency correction. Amplification efficiency of primer pairs was calculated from serial dilutions of a representative cDNA template over a concentration range of 3 log orders. […]

TRPM2-AS transcript = experiment: qPCR of TRPM2-AS transcript after siRNA transfection in Mel Im cells; conditions: siRNA 10 nM, harvested at 24 hours, respect to mock-transfected cells
From the text: as §1

Melanoma cells = experiment: Apoptosis detection by flow cytometry (Annexin V) after siRNA transfection; conditions: 72 h after transfection
Method: Apoptosis was measured after a 72 h transfection with any of the following siRNA: TRPM2-AS—657, TRPM2-AS—734, TRPM2-TE—55 or the non-specific siRNA. Early and late apoptotic cells were assessed by flow cytometry using the Annexin V-Fitc Apoptosis Detection kit (Immunostep, Salamanca, Spain), following manufacturer's instructions. Data acquisition and analysis were done in a FACSort Cytometer (Becton Dickinson, Franklin Lakes, N.J.) using CellQuest and FCS Express software.

[1] = system: CpG island located between TRPM2-AS and TRPM2-TE transcripts; experiment: De-novo DNA methylation of the CpG island, bisulphite sequencing of clones; conditions: Mel Im cells, liposome-encapsulated oligonucleotides 3 μM final, 24 hours
Method: Genomic DNA was isolated and purified with TRIzol reagent (Invitrogen) and quantified with a Nanodrop. Average 100 ng of each DNA sample were subjected to bisulphite modification with the MethylEasy Kit (Human Genetic Signatures) allowing the sulphonation reaction to proceed for no less than 8 hours at 55° C. Following conversion, 3 μl of the modified DNAs were PCR amplified with the primers CpG-8U 5′-[…]-3′ (SEQ ID No. 3) and CpG-8L 5′-[…]-3′ (SEQ ID No. 4) (1 ng/μl each) in the presence of buffer 10× (Qiagen), dNTPs (2 mmol/L), 5× Solution Q (Qiagen), Taq DNA Polymerase (3U), with the reaction conditions being: 1 minute of pre-incubation at 95° C., then amplification reactions were performed by 35 repetitive cycles of denaturing for 1 minute at 95° C., annealing for 2 minutes at 55° C. and extension for 2 minutes at 72° C. A semi-nested PCR reaction was performed in same conditions except for the forward primer changed to CpG-1U 5′-[…]-3′ (SEQ ID No. 5), using 4 μl of the previous 472 bp per product as template. The resulting 370 bp product was then gel-purified, cloned and sequenced using standard procedures.
Three phosphorothioate oligonucleotides were designed in which the cytosines in CpG dinucleotides were replaced by m^5 CpG. […]

Row | Substance | knock-out of TRPM2-TE transcripts/molecules (TRPM2-TE transcript) | knock-down of TRPM2-AS transcript expression (TRPM2-AS transcript) | level of apoptosis vs. the control siRNA or the mock transfected cells (Melanoma cells) | methylation of CpG island clones (5 clones sequenced) [1]
1 | 5′-AGGUAGUGUAAUCGCCUUG(dTdT)-3′ [non-specific siRNA, reference compound] | No significant down-regulation | No significant down-regulation | – | –
2 | 5′-CCACUUACUCAUCCAAGAA(dTdT)-3′ [TRPM2-AS—734] | 70% | 75% | significant increase | –
3 | 5′-CCAGUAACUCCGCCCAAAU(dTdT)-3′ [TRPM2-AS—657] | 84% | 69% | significant increase | –
4 | 5′-GAAGGACCACAGAGGAAGU(dTdT)-3′ [TRPM2-TE—55] | 56% | 30% | significant increase | –
5 | TCCT^mCGGGCTGCTGAGTTT^mCGC^mCGGCCC (DNA TCCTCGGGCTGCTGAGTTTCGCCGGCCC; 5-methylcytosine modifications, chemistry not fully specified) [MOS] | – | – | – | non-methylation

Source: US20110197293A1, “SENSE AND ANTISENSE TRANSCRIPTS OF TRPM2 AND USES THEREOF” (GIOVANNI LAVORGNA, priority 2008, published 2011)
